Assay results as given in the supplement of paper PMC10307832.

Columns and labels:
Assay in all cases: relative viability (nuclei count vs DMSO), 5 days (fraction); higher = more cells survive
[1] = compound: O=C(/C=C/c1cccnc1)NCCCCC1CCN(C(=O)c2ccccc2)CC1 [Daporinad] + C[C@]1(O)C[C@@H](c2nc(-c3ccc4ccc(-c5ccccc5)nc4c3)c3c(N)nccn32)C1 [Linsitinib] (partner 1 µM)
Procedure, shortened: (§1)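 Five library-drug doses in √10 steps were combined with a fixed anchor-drug dose, or a single drug was given alone, by pin tool to lung cancer cell lines in 1536-well plates the day after seeding. Nuclei were stained and counted after 5 days. Relative viability is the nuclei count in treated wells over that in vehicle wells, taken as the median of duplicate plates.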

[2] = compound: O=C(/C=C/c1cccnc1)NCCCCC1CCN(C(=O)c2ccccc2)CC1 [Daporinad] + CC(C)C[C@H](NC(=O)[C@H](Cc1ccccc1)NC(=O)c1cnccn1)B(O)O [Bortezomib] (partner 0.002 µM)
Procedure, shortened: as §1

[3] = compound: O=C(/C=C/c1cccnc1)NCCCCC1CCN(C(=O)c2ccccc2)CC1 [Daporinad] + COc1cc2c(Oc3ccc(NC(=O)C4(C(=O)Nc5ccc(F)cc5)CC4)cc3F)ccnc2cc1OCCCN1CCOCC1 [Foretinib] (partner 0.25 µM)
Procedure, shortened: as §1

[4] = compound: COc1cc(Nc2ncc(F)c(Nc3ccc4c(n3)NC(=O)C(C)(C)O4)n2)cc(OC)c1OC [R406] + Cc1cc(Nc2cc(N3CCN(C)CC3)nc(Sc3ccc(NC(=O)C4CC4)cc3)n2)n[nH]1 [Tozasertib] (partner 0.1 µM)
Procedure, shortened: as §1

| Cell Line | relative viability ([1]; first compound 0.0005 µM) | relative viability ([1]; first compound 0.001581 µM) | relative viability ([1]; first compound 0.005 µM) | relative viability ([1]; first compound 0.01581 µM) | relative viability ([2]; first compound 0.0005 µM) | relative viability ([2]; first compound 0.001581 µM) | relative viability ([2]; first compound 0.005 µM) | relative viability ([2]; first compound 0.01581 µM) | relative viability ([3]; first compound 0.0005 µM) | relative viability ([3]; first compound 0.001581 µM) | relative viability ([3]; first compound 0.005 µM) | relative viability ([3]; first compound 0.01581 µM) | relative viability ([4]; first compound 0.08 µM) | relative viability ([4]; first compound 0.253 µM) | relative viability ([4]; first compound 0.8 µM) | relative viability ([4]; first compound 2.53 µM) | relative viability ([4]; first compound 8 µM) |
| --- | --- | --- | --- | --- | --- | --- | --- | --- | --- | --- | --- | --- | --- | --- | --- | --- | --- |
| NCI-H647 | 1.06 | 1.07 | 1.24 | 0.983 | 1.03 | 1.04 | 1.14 | 1.01 | 1.32 | 1.18 | 1.06 | 1.28 | 0.261 | 0.327 | 0.26 | 0.21 | 0.173 |
| A-427 | 0.96 | 1.08 | 1.1 | 0.881 | 0.952 | 1.02 | 0.974 | 0.784 | 1.01 | 1.06 | 1.08 | 0.596 | 0.254 | 0.223 | 0.188 | 0.185 | 0.169 |
| EMC-BAC-2 | 0.904 | 0.797 | 0.802 | 0.339 | 1.22 | 1.04 | 1.06 | 0.301 | 1.14 | 1.1 | 0.518 | 0.314 | 0.311 | 0.286 | 0.305 | 0.279 | 0.246 |
| NCI-H460 | 0.759 | 0.928 | 0.818 | 0.777 | 1.1 | 1.17 | 1.05 | 1.05 | 1.07 | 1.04 | 0.968 | 1.02 | 0.493 | 0.486 | 0.481 | 0.344 | 0.264 |
| LCLC-103H | 1.01 | 1.2 | 1.16 | 1.21 | 1.11 | 1 | 1.07 | 1.04 | 0.846 | 0.834 | 0.884 | 0.868 | 0.524 | 0.495 | 0.569 | 0.503 | 0.376 |
| HCC-827 | 1 | 0.998 | 1.02 | 0.921 | 1.06 | 0.965 | 1.14 | 1.13 | 0.984 | 1.14 | 1.1 | 1.11 | 0.421 | 0.463 | 0.45 | 0.386 | 0.233 |
| NCI-H1355 | 0.798 | 1.02 | 0.9 | 0.876 | 1.16 | 1.2 | 1.35 | 1.07 | 0.997 | 1.01 | 1.06 | 1.02 | 0.572 | 0.575 | 0.558 | 0.572 | 0.258 |
| NCI-H1734 | 0.841 | 0.962 | 0.894 | 0.732 | 0.937 | 0.967 | 0.888 | 0.333 | 0.871 | 0.875 | 0.938 | 0.679 | 0.294 | 0.272 | 0.262 | 0.26 | 0.206 |
| HARA | 0.949 | 0.937 | 1.03 | 0.188 | 0.979 | 1.12 | 1.15 | 0.345 | 0.942 | 0.98 | 0.922 | 0.279 | 0.115 | 0.127 | 0.13 | 0.155 | 0.123 |
| HCC-15 | 0.79 | 0.943 | 0.926 | 0.928 | 0.989 | 1.13 | 1.07 | 1.04 | 0.916 | 1.22 | 1.12 | 1.12 | 0.437 | 0.484 | 0.458 | 0.483 | 0.208 |
| LCLC-97TM1 | 0.204 | 0.235 | 0.193 | 0.17 | 0.302 | 0.604 | 0.657 | 0.533 | 0.832 | 0.929 | 1.08 | 1.03 | 0.217 | 0.318 | 0.209 | 0.216 | 0.226 |
| SK-LU-1 | 1.26 | 1.13 | 1.05 | 1.09 | 0.921 | 1.34 | 1.16 | 1.61 | 0.908 | 0.872 | 0.922 | 0.829 | 0.301 | 0.318 | 0.363 | 0.256 | 0.106 |
| NCI-H1651 | 0.928 | 0.935 | 0.839 | 0.838 | 0.953 | 0.952 | 1.01 | 0.788 | 0.722 | 0.769 | 0.623 | 0.595 | 0.719 | 0.865 | 0.641 | 0.592 | 0.496 |
| NCI-H1793 | 0.697 | 0.853 | 1.14 | 0.926 | – | – | – | – | 0.738 | 0.868 | 0.956 | 0.807 | 0.333 | 0.353 | 0.389 | 0.155 | 0.109 |
| NCI-H2023 | 0.764 | 0.723 | 0.768 | 0.686 | 1.01 | 1.1 | 1.04 | 0.972 | 0.818 | 0.682 | 0.743 | 0.975 | 0.384 | 0.396 | 0.354 | 0.225 | 0.178 |
| LC-2-ad | 0.688 | 0.972 | 0.877 | 0.83 | 0.978 | 1.07 | 0.952 | 0.844 | 1.05 | 0.97 | 0.969 | 1.06 | 0.509 | 0.482 | 0.368 | 0.422 | 0.351 |
| NCI-H1703 | 0.77 | 1.27 | 0.996 | 0.626 | 0.403 | 0.382 | 0.422 | 0.196 | 0.33 | 0.347 | 0.302 | 0.282 | – | – | – | – | – |
| NCI-H1437 | 0.969 | 0.986 | 0.976 | 0.965 | 0.414 | 0.629 | 0.561 | 0.554 | 1.17 | 1.24 | 1.34 | 1.22 | 0.403 | 0.433 | 0.409 | 0.417 | 0.416 |
| SW 1573 | 0.889 | 0.848 | 0.747 | 0.551 | 1.12 | 0.769 | 1.05 | 0.714 | 0.962 | 0.701 | 1.06 | 0.744 | 0.179 | 0.233 | 0.22 | 0.175 | 0.0962 |
